# “Also recorded” adds a separate entry of the source. Read-outs that look alike come from different tables or passages of the source.
# Assays:
# [1] = test system: alkane polyol dehydrogenase (purified enzyme); assay type: biochemical, Pichia ofunaensis
# Protocol: The reaction solutions were prepared using plural substrates with varied concentrations. Each solution contained a substrate, 2 mM NAD^+, and an enzyme, and was allowed to react in a 100 mM potassium phosphate buffer solution (pH 8.0) at 25° C. Then, changes in absorbance (molar absorption coefficient 6,220 M^−1·cm^−1) at 340 nm due to the NADH formation were measured. 1 U is defined as an enzyme amount for catalyzing 1 μmol NADH formation per minute.
# (§1) The alkane polyol dehydrogenase obtained in Example 1 was utilized to measure the enzyme activities in the following manner.
# (§2) 1 U was defined as the amount of enzyme that catalyzes the formation of 1 μmol of NADH per minute.
# (§3) Measurement was performed in the same manner as in the activity measurements described earlier in 4-1.
# Such activity was measured by causing a reaction mixture containing 5 mM (R)-1,2-octanediol, 2 mM NAD^+ and enzyme to react in a 100 mM potassium phosphate buffer solution (pH 8.0) at 25° C., then observing the change, due to NADH formation, of absorbance (molecular absorption coefficient 6,220 M^−1 ·cm^−1) at 340 nm. 1 U was defined as the amount of enzyme that catalyzes the formation of 1 μmol of NADH per minute.
# E. coli HB101 (pSE420D) = test: Substrate specificity, comparison transformant E. coli HB101 (pSE420D) without the enzyme gene; assay type: biochemical, Escherichia coli; settings: for Activity, E. coli HB101 (pSE-420D): comparison transformant, substrate 100 mM, 2 mM NAD+, pH 8.0, 25° C.
# Protocol: as §2
# (§4) The substrate specificity of the protein of the present invention was analyzed using the purified enzyme obtained in Example 1 and the transformant (E. coli HB101 (pSE-HOG)) obtained in Example 3. For comparison, the same analysis was conducted with respect to a transformant (E. coli HB101 (pSE420D)) that was produced in the same manner as for E. coli HB101 (pSE-HOG), except that the plasmid (pSE420D) in which the relevant enzyme gene was not inserted was used.
# as §3
# [2] = test system: alkane polyol dehydrogenase expressed in E. coli HB101 (pSE-HOG); test: Substrate specificity, cell extract of transformant E. coli HB101 (pSE-HOG); assay type: biochemical, Pichia ofunaensis; settings: for dehydrogenation (oxidative) activity of E. coli HB101 (pSE-HOG), in words: Table 4; for Activity, E. coli HB101 (pSE-HOG): cell extract, 2 mM NAD+, pH 8.0, 25° C.
# Protocol: The Escherichia coli HB101 strain containing the pSE-HOG was cultivated in LB medium containing ampicillin. When the absorbance at 600 nm was 0.5, 0.1 mM IPTG was added thereto. Six hours after the addition, cells were harvested by centrifugal separation.
# The obtained cells were suspended in a cell disruption solution (100 mM potassium phosphate buffer solution (pH 8.0)). The cell bodies therein were disrupted using a mini bead beater (produced by BioSpec Products), then subjected to centrifugal separation for 10 minutes under an acceleration of 16,000 g. Thereby, the supernatant thereof as a cell extract was obtained.
# as §2, §4, §3
# [3] = test system: alkane polyol dehydrogenase (purified enzyme); test: Reduction activity measurement with purified alkane polyol dehydrogenase (NADH reduction at 340 nm); assay type: biochemical, Pichia ofunaensis; settings: for Reduction Activity: 0.2 mM NADH, pH 6.0, 25° C.; for reduction activity of the purified enzyme, in words: Table 3
# Protocol: The reaction solutions were prepared using plural substrates with varied concentrations. Each solution contained a substrate, 0.2 mM NADH, and an enzyme, and was allowed to react in a 100 mM potassium phosphate buffer solution (pH 6.0) at 25° C. Then, changes in absorbance (molar absorption coefficient 6,220 M^−1·cm^−1) at 340 nm due to the NADH reduction were measured. 1 U is defined as an enzyme amount for catalyzing 1 μmol NADH reduction per minutes.
# as §1
# 1 U was defined as the amount of enzyme that catalyzes the reduction of 1 μmol of NADH per minute.
# [4] = purified enzyme, Tables 2 and 4
# [5] = purified enzyme, substrate 100 mM, 2 mM NAD+, pH 8.0, 25° C.
compound,measurement,setting,value
"CCC(O)CO (stereo not drawn) [1,2-Butanediol]","oxidative (dehydrogenation) activity of the purified enzyme, in words",[1]; [4],well-oxidized
same,Oxidative Activity,[1]; [5],61.0 U/mg
"CCCCCC(O)CO (stereo not drawn) [1,2-Heptanediol]","oxidative (dehydrogenation) activity of the purified enzyme, in words",[1]; [4],well-oxidized
same,Oxidative Activity,"[1]; purified enzyme, substrate 10 mM, 2 mM NAD+, pH 8.0, 25° C.",27.8 U/mg
"CCCCC(O)CO (stereo not drawn) [1,2-Hexanediol]","oxidative (dehydrogenation) activity of the purified enzyme, in words",[1]; [4],well-oxidized
same,Oxidative Activity,[1]; [5],38.4 U/mg
"CCCCCCC(O)CO (stereo not drawn) [1,2-Octanediol]","dehydrogenation activity of E. coli HB101 (pSE420D), in words",E. coli HB101 (pSE420D); Table 4,does not show the dehydrogenation activity
same,"dehydrogenation (oxidative) activity of E. coli HB101 (pSE-HOG), in words","[2]; listed as (R,S)-1,2-octanediol",excellent dehydrogenation activity; also recorded: show an oxidative activity
same,"Activity, E. coli HB101 (pSE-HOG)",[2]; substrate 5 mM,0.53 U/mg
same,"oxidative (dehydrogenation) activity of the purified enzyme, in words",[1]; [4],well-oxidized
same,"oxidative (dehydrogenation) activity of the purified enzyme, in words","[1]; purified enzyme, Tables 2 and 4, listed as (R,S)-1,2-octanediol",excellent dehydrogenation activity; also recorded: show an oxidative activity
same,Oxidative Activity,"[1]; purified enzyme, substrate 5 mM, 2 mM NAD+, pH 8.0, 25° C.",64.3 U/mg
"CCCC(O)CO (stereo not drawn) [1,2-Pentanediol]","oxidative (dehydrogenation) activity of the purified enzyme, in words",[1]; [4],well-oxidized
same,Oxidative Activity,[1]; [5],99.3 U/mg
"CC(O)CO (stereo not drawn) [1,2-Propanediol]","dehydrogenation (oxidative) activity of E. coli HB101 (pSE-HOG), in words",[2],high dehydrogenation activity
same,"oxidative (dehydrogenation) activity of the purified enzyme, in words",[1]; [4],well-oxidized; also recorded: high dehydrogenation activity
same,Oxidative Activity,[1]; [5],71.7 U/mg
"CC(O)CCO (stereo not drawn) [1,3-Butanediol]","oxidative (dehydrogenation) activity of the purified enzyme, in words",[1]; [4],only a weak oxidative activity
same,Oxidative Activity,[1]; [5],6.0 U/mg
CCCCO [1-Butanol],"oxidative (dehydrogenation) activity of the purified enzyme, in words",[1],did not have oxidative activity
CCC(=O)CO [1-Hydroxy-2-butanone],Reduction Activity,[3]; substrate 100 mM,5.84 U/mg
CCCCCO [1-Pentanol],"oxidative (dehydrogenation) activity of the purified enzyme, in words",[1]; [4],did not have oxidative activity
CCCO [1-Propanol],"oxidative (dehydrogenation) activity of the purified enzyme, in words",[1],did not have oxidative activity
"CC(O)C(C)O (stereo not drawn) [2,3-Butanediol]","dehydrogenation (oxidative) activity of E. coli HB101 (pSE-HOG), in words",[2],high dehydrogenation activity
same,"oxidative (dehydrogenation) activity of the purified enzyme, in words",[1]; [4],well-oxidized; also recorded: high dehydrogenation activity
same,Oxidative Activity,[1]; [5],50.0 U/mg
"CCCC(=O)C(C)=O [2,3-Hexanedione]","reduction activity of the purified enzyme, in words",[3],high reduction activity
same,Reduction Activity,[3]; substrate 5 mM,67.5 U/mg
"CCC(=O)C(C)=O [2,3-Pentanedione]","reduction activity of the purified enzyme, in words",[3],high reduction activity
same,Reduction Activity,[3]; substrate 5 mM,73.8 U/mg
"CC(O)CC(C)O (stereo not drawn) [2,4-Pentanediol]","oxidative (dehydrogenation) activity of the purified enzyme, in words",[1]; [4],only a weak oxidative activity
same,Oxidative Activity,[1]; [5],2.53 U/mg
"CC(O)CCC(C)O (stereo not drawn) [2,5-Hexanediol]","oxidative (dehydrogenation) activity of the purified enzyme, in words",[1]; [4],only a weak oxidative activity
same,Oxidative Activity,[1]; [5],0.77 U/mg
CCC(C)O (stereo not drawn) [2-Butanol],"oxidative (dehydrogenation) activity of the purified enzyme, in words",[1],weak oxidative activity
same,Oxidative Activity,[1]; pH 8,<0.1 U/mg
CCC(C)=O [2-Butanone],Reduction Activity,[3]; substrate 100 mM,0.40 U/mg
CCCCCC(C)O (stereo not drawn) [2-Heptanol],"oxidative (dehydrogenation) activity of the purified enzyme, in words",[1]; [4],no activity was observed
CCCCCCC(C)O (stereo not drawn) [2-Octanol],"oxidative (dehydrogenation) activity of the purified enzyme, in words",[1]; [4],no activity was observed
CCCC(C)=O [2-Pentanone],Reduction Activity,[3]; substrate 100 mM,3.71 U/mg
"CCC(=O)C(=O)CC [3,4-Hexanedione]","reduction activity of the purified enzyme, in words",[3],high reduction activity
same,Reduction Activity,[3]; substrate 5 mM,32.8 U/mg
CCCC(=O)CC [3-Hexanone],Reduction Activity,[3]; substrate 10 mM,1.39 U/mg
CC(=O)C(C)O (stereo not drawn) [3-Hydroxy-2-butanone],"reduction activity of the purified enzyme, in words",[3],high reduction activity
same,Reduction Activity,[3]; substrate 100 mM,102 U/mg
same,Oxidative Activity,[1]; [5],0.55 U/mg
"C[C@@H](O)[C@@H](C)O [(2R,3R)-2,3-Butanediol]","Activity, E. coli HB101 (pSE-HOG)",[2]; substrate 100 mM,0.72 U/mg
same,Oxidative Activity,[1]; [5],82.1 U/mg
"C[C@H](O)[C@H](C)O [(2S,3S)-2,3-Butanediol]","Activity, E. coli HB101 (pSE-HOG)",[2]; substrate 100 mM,0.12 U/mg
same,Oxidative Activity,[1]; [5],19.4 U/mg
"OCC[C@@H](O)CO [(R)-1,2,4-Butanetriol]","dehydrogenation (oxidative) activity of E. coli HB101 (pSE-HOG), in words",[2],significant dehydrogenation activity
same,"Activity, E. coli HB101 (pSE-HOG)",[2]; substrate 100 mM,0.15 U/mg
same,"oxidative (dehydrogenation) activity of the purified enzyme, in words",[1]; [4],significant dehydrogenation activity
same,Oxidative Activity,[1]; [5],3.9 U/mg
"C[C@@H](O)CO [(R)-1,2-Propanediol]","Activity, E. coli HB101 (pSE-420D)",E. coli HB101 (pSE420D),<0.1 U/mg
same,"Activity, E. coli HB101 (pSE-HOG)",[2]; substrate 100 mM,0.80 U/mg
same,Oxidative Activity,[1]; [5],89.2 U/mg
"CCCCCC[C@@H](O)CO [(R)-1,2-octanediol]","(R)-1,2-octanediol dehydrogenase activity per 1 mg of the purified protein","[1]; per 1 mg purified protein, 5 mM substrate, 2 mM NAD+, pH 8.0, 25° C.",≥ 60 U
"OCC[C@H](O)CO [(S)-1,2,4-Butanetriol]","dehydrogenation (oxidative) activity of E. coli HB101 (pSE-HOG), in words",[2],no activity was seen
same,"oxidative (dehydrogenation) activity of the purified enzyme, in words",[1]; [4],no activity was seen
"C[C@H](O)CO [(S)-1,2-Propanediol]","Activity, E. coli HB101 (pSE-420D)",E. coli HB101 (pSE420D),<0.1 U/mg
same,"Activity, E. coli HB101 (pSE-HOG)",[2]; substrate 100 mM,0.29 U/mg
same,Oxidative Activity,[1]; [5],36.4 U/mg
CC(=O)CO [Acetol],"reduction activity of the purified enzyme, in words",[3],high reduction activity
same,Reduction Activity,[3]; substrate 100 mM,64.9 U/mg
OCc1ccccc1 [Benzyl alcohol],"oxidative (dehydrogenation) activity of the purified enzyme, in words",[1]; [4],did not have oxidative activity
O=C1CCCCC1 [Cyclohexanone],Reduction Activity,[3]; substrate 10 mM,0.28 U/mg
CCO [Ethanol],"oxidative (dehydrogenation) activity of the purified enzyme, in words",[1],did not have oxidative activity
CC(C)O [Isopropanol],"oxidative (dehydrogenation) activity of the purified enzyme, in words",[1]; [4],weak oxidative activity
same,Oxidative Activity,[1]; [5],1.45 U/mg
CO [Methanol],"oxidative (dehydrogenation) activity of the purified enzyme, in words",[1]; [4],did not have oxidative activity
"CC(O)C(C)O (stereo not drawn) [meso-2,3-Butanediol]","Activity, E. coli HB101 (pSE-420D)",E. coli HB101 (pSE420D),<0.1 U/mg
same,"Activity, E. coli HB101 (pSE-HOG)",[2]; substrate 100 mM,1.17 U/mg
same,Oxidative Activity,[1]; [5],160 U/mg
CCCCCCO [n-Hexanol],"oxidative (dehydrogenation) activity of the purified enzyme, in words",[1]; [4],did not have oxidative activity

# — US7771977B2, “Alkane polyol dehydrogenase” (National University Corporation Nara Institute of Science …, priority 2006, dated 2010)
